Drawing on ChEMBL document CHEMBL1159237, “The isolation and structural elucidation of three new neolignans, piperulins [corrected] A, B, and C, as platelet activating factor receptor antagonists from Piper puberulum” (J Nat Prod, 1995), this text covers IC50, Ki and Activity for 3 compounds.

By IC50 is commonly meant the concentration that gives 50% inhibition. High values mean lower potency, low ones higher potency. One may read the Ki as a measure of affinity in units of concentration, obtained from inhibition or displacement. Higher therefore signals weaker binding.

Molecules are shown by their SMILES.

Assay [1] in a line: Displacement of [3H]PAF from rabbit PAF receptor in isolated platelet plasma membrane. Type of assay: cell membranes, Oryctolagus cuniculus. (Loss of bound radioactivity is the signal in a displacement assay; it reports binding, not function.)
The next assay is filed under the species Oryctolagus cuniculus. Nature of the assay: Displacement of [3H]PAF from rabbit PAF receptor in isolated platelet plasma membrane at 10 uM. Type of assay: cell membranes.

Turning to `C=CC[C@]12C=C(OC)C(=O)[C@H]([C@@H](c3ccc(O)c(OC)c3)[C@@H]1C)[C@@H]2OC(C)=O` [PUBERULIN C], in assay [1], the IC50 came out at 5.7 µM and the Ki came to 3.7 µM. The Activity in the assay filed under Oryctolagus cuniculus was determined as 66%.
Regarding `C=CCC1=C[C@@]2(OC)[C@@H](C)[C@H](c3ccc4c(c3)OCO4)[C@@H](C1=O)[C@@H]2OC(C)=O` [PUBERULIN B], the IC50 in assay [1] was at least 10 µM. Further, the Activity in the assay listed under Oryctolagus cuniculus was found to be 43%.
In assay [1], `C=CCC1=C[C@@]2(OC)[C@@H](C)[C@H](c3ccc(OC)c(OC)c3)[C@@H](C1=O)[C@@H]2OC(C)=O` [PUBERULIN A] yielded an IC50 of 7.3 µM and a Ki of 4.7 µM. In the assay filed under Oryctolagus cuniculus, this compound yielded an Activity of 63%.
